Biological target: Nav1.8 sodium channel (Homo sapiens (Human), UniProt Q9Y5Y9)
Experiment: NaV1.8 blocking activity, manual patch clamp
Assay type: cell-based
Conditions: CHO cell line stably expressing Nav1.8
Protocol: The NaV1.8 blocking activity was determined by using a manual patch clamp technique to detect the effect of the subject on the channel currents of stably overexpressed Nav1.8.
CHO cell line stably expressing the Nav1.8 sodium channel was used for the experiments, gene information: sodium channel, voltage-gated, type 8, alpha (SCN10A), cDNA strictly similar to GenBank accession number: NM 006514.
Cells were cultured in HAM'S/F-12 medium containing 10% foetal bovine serum and 10 μg/mL Blasticidin, 200 μg/mL Hygromycin B, and 100 μg/mL Zeocin at 37° C., 5% CO2. For expansion or maintenance cultures, cells were treated with 0.25%-Trypsin-EDTA, washed and centrifuged, and then inoculated in 6-cm cell culture dishes with 2.5×10^5lls per cell culture dish (final volume: 5 mL).
Prior to the patch clamp detection, cells were separated with 0.25%-Trypsin-EDTA and 6.5×10^3 cells were spread onto coverslips and incubated (final volume: 500 μL) in 24-well plates for 18 hours, then the test was performed.
50 mM CsCl, 10 mM NaCl, 10 mM HEPES, 60 mM CsF, 20 mM EGTA, and pH was adjusted to 7.2 with CsOH. • Instrument information is provided in Table 2 below:
Prior to Nav1.8 channel current testing, a blank control solution (DMSO) was diluted into 10 ml of extracellular fluid as the working solution. Positive controls and subjects were first diluted with different doses of DMSO depending on the final concentration before being diluted as working solution using extracellular fluid. 100 nM TTX was added to each working solution to block the TTX-S current. The working solution was sonicated for 20 min before performing the patch clamp test detection.
Patch clamp manipulation: firstly, the capillary glass tube was drawn into a recording electrode using a microelectrode puller, then the electrode filled with intracellular fluid was loaded into the microelectrode holder, and the microelectrode manipulator was manoeuvred under an inverted microscope to immerse the electrode into the extracellular fluid and record the electrode resistance (Rpip). The electrode was then slowly contacted to the cell surface and negative pressure suction was given to form a GQ2 seal. At this time, fast capacitance compensation was performed and negative pressure was continually applied to suction through the cell membrane to form a whole-cell recording pattern. Finally, slow capacitance compensation was performed and experimental parameters such as series resistance (Rs) were recorded. No leakage compensation was given.
Drug administration was initiated when the Nav1.8 current was stabilized for whole-cell recordings, and the next concentration was detected after each drug concentration had acted for approximately 5 min (or until the current was stable). Cell-lined coverslips were placed in the recording bath under an inverted microscope, and the blank control external solution as well as the working solution of the compound to be tested flowed sequentially from low to high concentrations through the recording bath by using gravitational perfusion and thus acted on the cells, and a peristaltic pump was used to exchange fluids during the recording. The current detected by each cell in the compound-free external fluid served as its own control. Each concentration was repeated independently 2-3 times. All electrophysiological experiments were performed at room temperature.
The voltage stimulation scheme for whole-cell patch-clamp recording of Nav1.8 currents was as follows: when a whole-cell seal was formed, the voltage was clamped at −120 mV. The resting state recording of sodium currents was performed by maintaining the voltage for 5s and then depolarizing it to 0 mV, and then administering a depolarizing pulse (TP1) to 0 m V for 50 ms for detecting the resting state sodium currents. For half-inactivated state recording, the voltage was first stepped at different voltages and maintained for 5s and then a depolarizing pulse was given to 0 mV to detect the Vhalf. […]

Chain of Nav1.8 sodium channel (Q9Y5Y9 whole entry): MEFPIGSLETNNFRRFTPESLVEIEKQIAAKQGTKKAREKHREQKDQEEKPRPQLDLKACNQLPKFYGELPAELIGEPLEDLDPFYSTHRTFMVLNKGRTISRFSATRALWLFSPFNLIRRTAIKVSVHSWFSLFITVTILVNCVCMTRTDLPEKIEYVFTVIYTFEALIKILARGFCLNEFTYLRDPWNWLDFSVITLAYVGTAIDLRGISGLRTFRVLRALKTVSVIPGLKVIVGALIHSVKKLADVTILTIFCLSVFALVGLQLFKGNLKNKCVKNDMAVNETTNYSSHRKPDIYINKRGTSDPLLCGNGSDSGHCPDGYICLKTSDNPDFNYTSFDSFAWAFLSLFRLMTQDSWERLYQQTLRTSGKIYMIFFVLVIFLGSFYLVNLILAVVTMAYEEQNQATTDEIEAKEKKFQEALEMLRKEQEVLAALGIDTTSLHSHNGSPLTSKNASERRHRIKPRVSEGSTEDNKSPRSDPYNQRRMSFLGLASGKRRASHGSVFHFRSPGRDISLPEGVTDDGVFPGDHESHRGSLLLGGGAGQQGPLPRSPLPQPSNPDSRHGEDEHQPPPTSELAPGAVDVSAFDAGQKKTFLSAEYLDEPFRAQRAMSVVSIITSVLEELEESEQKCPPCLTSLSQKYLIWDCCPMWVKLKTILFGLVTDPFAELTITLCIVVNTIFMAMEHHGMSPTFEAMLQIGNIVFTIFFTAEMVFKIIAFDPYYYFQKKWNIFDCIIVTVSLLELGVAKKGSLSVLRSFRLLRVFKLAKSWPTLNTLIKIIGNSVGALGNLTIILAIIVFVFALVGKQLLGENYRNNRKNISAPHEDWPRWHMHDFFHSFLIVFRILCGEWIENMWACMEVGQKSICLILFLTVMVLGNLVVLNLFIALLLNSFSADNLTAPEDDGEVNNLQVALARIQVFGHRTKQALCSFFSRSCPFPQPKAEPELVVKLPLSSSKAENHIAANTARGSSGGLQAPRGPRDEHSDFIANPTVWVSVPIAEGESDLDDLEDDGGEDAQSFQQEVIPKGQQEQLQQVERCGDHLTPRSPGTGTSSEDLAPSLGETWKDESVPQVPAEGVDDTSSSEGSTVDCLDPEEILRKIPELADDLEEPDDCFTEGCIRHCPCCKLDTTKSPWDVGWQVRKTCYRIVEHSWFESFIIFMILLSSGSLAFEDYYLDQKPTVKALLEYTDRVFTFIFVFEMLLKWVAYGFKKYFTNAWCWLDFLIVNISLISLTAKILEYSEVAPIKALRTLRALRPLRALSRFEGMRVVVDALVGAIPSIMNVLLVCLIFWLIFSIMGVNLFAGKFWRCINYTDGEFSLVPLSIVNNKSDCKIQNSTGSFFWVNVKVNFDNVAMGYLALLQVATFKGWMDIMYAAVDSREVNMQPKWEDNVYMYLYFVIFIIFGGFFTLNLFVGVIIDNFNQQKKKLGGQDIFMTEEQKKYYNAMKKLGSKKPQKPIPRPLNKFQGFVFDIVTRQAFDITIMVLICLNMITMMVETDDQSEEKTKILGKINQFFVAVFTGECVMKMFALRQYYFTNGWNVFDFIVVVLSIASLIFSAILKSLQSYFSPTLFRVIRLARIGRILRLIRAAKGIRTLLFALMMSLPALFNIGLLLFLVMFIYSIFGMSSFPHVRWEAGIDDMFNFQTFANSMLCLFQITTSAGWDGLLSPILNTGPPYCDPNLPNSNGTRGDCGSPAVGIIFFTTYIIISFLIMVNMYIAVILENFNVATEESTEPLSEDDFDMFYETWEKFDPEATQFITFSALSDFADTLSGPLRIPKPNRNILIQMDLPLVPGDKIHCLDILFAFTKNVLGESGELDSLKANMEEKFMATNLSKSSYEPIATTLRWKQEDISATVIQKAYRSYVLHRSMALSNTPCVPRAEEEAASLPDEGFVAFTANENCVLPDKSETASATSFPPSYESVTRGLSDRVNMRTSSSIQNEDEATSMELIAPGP

| Compound | Blocking rate (%) @3 nM | Blocking rate(%) @10 nM |
| --- | --- | --- |
| 4-((2R,3S,4S,5R)-3-(3,4-difluoro-2-(methoxy-d3)phenyl)-4,5-dimethyl-1-(2,2,2-trifluoroacetyl)-5-(trifluoromethyl) pyrrolidine-2-carboxamido)pyridinamide [Compound 17] | 28.89% | 77.24% |
| COc1c([C@@H]2[C@@H](C(=O)Nc3ccnc(C(N)=O)c3)N[C@](C)(C(F)(F)F)[C@@H]2C)ccc(F)c1F [Compound 2, 4-((2S,3R,4R,5S)-3-(3,4-difluoro-2-methoxyphenyl)-4,5-dimethyl-5-(trifluoromethyl)pyrrolidine-2-carboxamido)pyridine amide] | – | 9.30% |
| COc1c([C@H]2[C@H](C(=O)Nc3ccnc(C(N)=O)c3)N(C)[C@@](C)(C(F)(F)F)[C@H]2C)ccc(F)c1F [Compound 3, 4-((2R,3S,4S,5R)-3-(3,4-difluoro-2-methoxyphenyl)-1,4,5-trimethyl-5-(trifluoromethyl)pyrrolidine-2-carboxamido)pyridine amide] | – | 84.03% |
| COc1c([C@@H]2[C@@H](C(=O)Nc3ccnc(C(N)=O)c3)N(C)[C@](C)(C(F)(F)F)[C@@H]2C)ccc(F)c1F [Compound 4, 4-((2S,3R,4R,5S)-3-(3,4-difluoro-2-methoxyphenyl)-1,4,5-trimethyl-5-(trifluoromethyl)pyrrolidine-2-carboxamido)pyridine amide] | – | 6.05% |
| COc1c([C@H]2[C@H](C(=O)Nc3ccc([C@H](O)CO)nc3)N[C@@](C)(C(F)(F)F)[C@H]2C)ccc(F)c1F [Compound 5, (2R,3S,4S,5R)-3-(3,4-difluoro-2-methoxyphenyl)-aza-(6-((S)-1,2-dihydroxyethyl)pyridin-3-yl)-4,5-dimethyl-5-(trifluoromethyl) pyrrolidine-2-carboxamide] | 72.73% | 79.03% |
| COc1c([C@H]2[C@H](C(=O)Nc3ccc([C@@H](O)CO)nc3)N[C@@](C)(C(F)(F)F)[C@H]2C)ccc(F)c1F [Compound 6, (2R,3S,4S,5R)-3-(3,4-difluoro-2-methoxyphenyl)-aza-(6-((R)-1,2-dihydroxyethyl)pyridin-3-yl)-4,5-dimethyl-5-(trifluoromethyl) pyrrolidine-2-carboxamide] | 20.06% | 45.92% |
| COc1c([C@H]2[C@H](C(=O)Nc3ccnc(S(N)(=O)=O)c3)N[C@@](C)(C(F)(F)F)[C@H]2C)ccc(F)c1F [Compound 9, (2R,3S,4S,5R)-3-(3,4-difluoro-2-methoxyphenyl)-4,5-dimethyl-aza-(2-aminosulfonylpyridin-4-yl)-5-(trifluoromethyl) pyrrolidine-2-carboxamide] | 58.06% | 84.91% |
| COc1c([C@H]2[C@H](C(=O)Nc3ccnc(S(C)(=O)=O)c3)N[C@@](C)(C(F)(F)F)[C@H]2C)ccc(F)c1F [Compound 12, (2R,3S,4S,5R)-3-(3,4-difluoro-2-methoxyphenyl)-4,5-dimethyl-N-(2-(methylsulfonyl)pyridin-4-yl)-5-(trifluoromethyl) pyrrolidine-2-carboxamide] | 77.43% | 88.65% |
| C[C@H]1[C@@H](c2ccc(F)c(F)c2OC(F)F)[C@H](C(=O)Nc2ccnc(C(N)=O)c2)N[C@@]1(C)C(F)(F)F [Compound 13, 4-((2R,3S,4S,5R)-3-(2-(difluoromethoxy)-3,4-difluorophenyl)-4,5-dimethyl-5-(trifluoromethyl)pyrrolidine-2-carboxamido)pyridinamide] | 75.71% | 92.01% |
| [2H]C([2H])([2H])Oc1c([C@H]2[C@H](C(=O)Nc3ccc(F)c(C(=N)NO)c3)N[C@@](C)(C(F)(F)F)[C@H]2C)ccc(F)c1F [Compound 14, (2R,3S,4S,5R)-3-(3,4-difluoro-2-(methoxy-d3)phenyl)-N-(4-fluoro-3-(N-hydroxycarbamimidoyl)phenyl)-4,5-dimethyl-5-(trifluoromethyl) pyrrolidine-2-carboxamide] | 91.40% | 99.51% |
| [2H]C([2H])([2H])Oc1c([C@H]2[C@H](C(=O)Nc3ccnc(C(=N)NOC)c3)N[C@@](C)(C(F)(F)F)[C@H]2C)ccc(F)c1F [Compound 15, (2R,3S,4S,5R)-3-(3,4-difluoro-2-(methoxy-d3)phenyl)-N-(2-(N-methoxycarbamimidoyl)pyridin-4-yl)-4,5-dimethyl-5-(trifluoromethyl) pyrrolidine-2-carboxamide] | 35.55% | 79.44% |
| [2H]C([2H])([2H])Oc1c([C@H]2[C@H](C(=O)Nc3ccnc(C(=N)NO)c3)N[C@@](C)(C(F)(F)F)[C@H]2C)ccc(F)c1F [Compound 16, (2R,3S,4S,5R)-3-(3,4-difluoro-2-(methoxy-d3)phenyl)-N-(2-(N-hydroxycarbamimidoyl)pyridin-4-yl)-4,5-dimethyl-5-(trifluoromethyl) pyrrolidine-2-carboxamide] | 6.68% | 25.19% |
| [2H]C([2H])([2H])Oc1c([C@H]2[C@H](C(=O)Nc3cc[n+]([O-])c(C(N)=O)c3)N[C@@](C)(C(F)(F)F)[C@H]2C)ccc(F)c1F [Compound 18, 2-carbamoyl-4-((2R,3S,4S,5R)-3-(3,4-difluoro-2-(methoxy-d3)phenyl)-4,5-dimethyl-5-(trifluoromethyl)pyrrolidine-2-carboxamido)pyridine 1-oxide] | 40.29% | 63.01% |
| C[C@H]1[C@@H](c2ccc(F)c(F)c2OC(F)F)[C@H](C(=O)Nc2ccnc(C(N)=O)c2)N[C@@]1(C)C(F)(F)F [Compound 19, 4-((2R,3S,4S,5R)-3-(2-(difluoromethoxy)-3,4-difluorophenyl)-4,5-dimethyl-5-(trifluoromethyl)pyrrolidine-2-carboxamido)pyridinamide] | 26.22% | 55.68% |
